# Experimental data from US5980913A, “Peptides having immunomodulatory activity” (Biochem Pharma, Inc., priority 1994, dated 1999).
# Where a SMILES comes first, the peptide text is derived from it. [ ]: non-standard residue; d: D form.
# Tested on: spleen cell subsets (cell surface antigens)
# Test: In vivo/ex vivo immunophenotyping in the spleen, mice treated 4 consecutive days
# Parameters: species or system C57BL/6 mice
# Protocol: C57BL.backslash.6 mice are treated with 0, 50, 100, 200, and 300 mg/kg of drug (in saline) for 4 consecutive days. Blood is taken by cardiac puncture on day 5, and the lymphocytes are isolated from spleen in the following manner:
# The spleen is aseptically removed and mashed by pressing against a steel strainer with a rubber plunger. The cell suspension is separated from the clumps by letting them settle at the bottom of the tube. The cell suspension is then separated on a Lymphocyte M layer and the interface is recovered and resuspended in media.
# 1. Immunophenotyping (blood and spleen)
# Cell immunophenotyping is performed on blood and spleen. The following cell surface antigens are analyzed:
# CD4 (T helper/inducer, binds class II-restricted T cells);
# CD8 (cytotoxic T cells, CTL adhesion);
# MAC-1 (monocyte/macrophage);
# NK (natural killer cells);
# CD45 (all leukocytes, protein tyrosine phosphatase).
smiles,measurement,setting,value
"NCCCC[C@@H](N)C(=O)N[C@@H](CC(N)=O)C(=O)N1CCC[C@H]1C(=O)N[C@@H](Cc1ccc(O)cc1)C(=O)O [PEPTIDE #5, H-(D-Lys)-Asn-Pro-Tyr-OH] (H-[dK]NPY-OH)","CD4+ CD8+ cell subset, relative percentage, MEAN","100 mg/kg, second assay",0.53
same,"CD4+ CD8- cell subset, relative percentage, MEAN","100 mg/kg, second assay",31.78
same,"CD4+ CD11b+ cell subset, relative percentage, MEAN","100 mg/kg, second assay",0.33
same,"CD4+ CD11b- cell subset, relative percentage, MEAN","100 mg/kg, second assay",14.65
same,"CD4- CD8+ cell subset, relative percentage, MEAN","100 mg/kg, second assay",4.68
same,"CD4- CD8- cell subset, relative percentage, MEAN","100 mg/kg, second assay",63.03
same,"CD4- CD11b+ cell subset, relative percentage, MEAN","100 mg/kg, second assay",3.53
same,"CD4- CD11b- cell subset, relative percentage, MEAN","100 mg/kg, second assay",81.53
same,"CD45+ CD4+ cell subset, relative percentage, MEAN","100 mg/kg, second assay",26.40
same,"CD45+ CD4- cell subset, relative percentage, MEAN","100 mg/kg, second assay",50.20
same,"CD45+ CD8+ cell subset, relative percentage, MEAN","100 mg/kg, second assay",4.80
same,"CD45+ CD8- cell subset, relative percentage, MEAN","100 mg/kg, second assay",73.48
same,"CD45- CD4+ cell subset, relative percentage, MEAN","100 mg/kg, second assay",6.83
same,"CD45- CD4- cell subset, relative percentage, MEAN","100 mg/kg, second assay",16.60
same,"CD45- CD8+ cell subset, relative percentage, MEAN","100 mg/kg, second assay",0.10
same,"CD45- CD8- cell subset, relative percentage, MEAN","100 mg/kg, second assay",21.68
same,"Ly5(B) cell subset, relative percentage, MEAN","100 mg/kg, second assay",48.28
same,"NK+ CD3+ cell subset, relative percentage, MEAN","100 mg/kg, second assay",2.25
same,"NK+ CD3- cell subset, relative percentage, MEAN","100 mg/kg, second assay",4.10
same,"NK- CD3+ cell subset, relative percentage, MEAN","100 mg/kg, second assay",28.65
same,"NK- CD3- cell subset, relative percentage, MEAN","100 mg/kg, second assay",65.05
same,"TCR(T) cell subset, relative percentage, MEAN","100 mg/kg, second assay",40.33
same,"CD4+ CD8+ cell subset, relative percentage, MEAN","200 mg/kg, first assay",0.63
same,"CD4+ CD8- cell subset, relative percentage, MEAN","200 mg/kg, first assay",33.73
same,"CD4+ CD11b+ cell subset, relative percentage, MEAN","200 mg/kg, first assay",1.00
same,"CD4+ CD11b- cell subset, relative percentage, MEAN","200 mg/kg, first assay",22.65
same,"CD4- CD8+ cell subset, relative percentage, MEAN","200 mg/kg, first assay",5.68
same,"CD4- CD8- cell subset, relative percentage, MEAN","200 mg/kg, first assay",60.00
same,"CD4- CD11b+ cell subset, relative percentage, MEAN","200 mg/kg, first assay",3.58
same,"CD4- CD11b- cell subset, relative percentage, MEAN","200 mg/kg, first assay",72.00
same,"CD45+ CD4+ cell subset, relative percentage, MEAN","200 mg/kg, first assay",21.18
same,"CD45+ CD4- cell subset, relative percentage, MEAN","200 mg/kg, first assay",54.03
same,"CD45+ CD8+ cell subset, relative percentage, MEAN","200 mg/kg, first assay",5.28
same,"CD45+ CD8- cell subset, relative percentage, MEAN","200 mg/kg, first assay",64.83
same,"CD45- CD4+ cell subset, relative percentage, MEAN","200 mg/kg, first assay",14.33
same,"CD45- CD4- cell subset, relative percentage, MEAN","200 mg/kg, first assay",10.48
same,"CD45- CD8+ cell subset, relative percentage, MEAN","200 mg/kg, first assay",0.55
same,"CD45- CD8- cell subset, relative percentage, MEAN","200 mg/kg, first assay",29.35
same,"Ly5(B) cell subset, relative percentage, MEAN","200 mg/kg, first assay",59.50
same,"NK+ CD3+ cell subset, relative percentage, MEAN","200 mg/kg, first assay",1.95
same,"NK+ CD3- cell subset, relative percentage, MEAN","200 mg/kg, first assay",3.88
same,"NK- CD3+ cell subset, relative percentage, MEAN","200 mg/kg, first assay",35.70
same,"NK- CD3- cell subset, relative percentage, MEAN","200 mg/kg, first assay",58.50
same,"TCR(T) cell subset, relative percentage, MEAN","200 mg/kg, first assay",37.30
same,"CD4+ CD8+ cell subset, relative percentage, MEAN","200 mg/kg, second assay",0.55
same,"CD4+ CD8- cell subset, relative percentage, MEAN","200 mg/kg, second assay",36.13
same,"CD4+ CD11b+ cell subset, relative percentage, MEAN","200 mg/kg, second assay",0.33
same,"CD4+ CD11b- cell subset, relative percentage, MEAN","200 mg/kg, second assay",13.10
same,"CD4- CD8+ cell subset, relative percentage, MEAN","200 mg/kg, second assay",4.95
same,"CD4- CD8- cell subset, relative percentage, MEAN","200 mg/kg, second assay",58.40
same,"CD4- CD11b+ cell subset, relative percentage, MEAN","200 mg/kg, second assay",3.20
same,"CD4- CD11b- cell subset, relative percentage, MEAN","200 mg/kg, second assay",78.38
same,"CD45+ CD4+ cell subset, relative percentage, MEAN","200 mg/kg, second assay",29.00
same,"CD45+ CD4- cell subset, relative percentage, MEAN","200 mg/kg, second assay",52.45
same,"CD45+ CD8+ cell subset, relative percentage, MEAN","200 mg/kg, second assay",5.08
same,"CD45+ CD8- cell subset, relative percentage, MEAN","200 mg/kg, second assay",78.23
same,"CD45- CD4+ cell subset, relative percentage, MEAN","200 mg/kg, second assay",8.63
same,"CD45- CD4- cell subset, relative percentage, MEAN","200 mg/kg, second assay",9.98
same,"CD45- CD8+ cell subset, relative percentage, MEAN","200 mg/kg, second assay",0.13
same,"CD45- CD8- cell subset, relative percentage, MEAN","200 mg/kg, second assay",16.60
same,"Ly5(B) cell subset, relative percentage, MEAN","200 mg/kg, second assay",46.50
same,"NK+ CD3+ cell subset, relative percentage, MEAN","200 mg/kg, second assay",2.35
same,"NK+ CD3- cell subset, relative percentage, MEAN","200 mg/kg, second assay",4.35
same,"NK- CD3+ cell subset, relative percentage, MEAN","200 mg/kg, second assay",32.15
same,"NK- CD3- cell subset, relative percentage, MEAN","200 mg/kg, second assay",61.10
same,"TCR(T) cell subset, relative percentage, MEAN","200 mg/kg, second assay",47.23
